These are literature values, as cited in US20180333352A1, “TOPICAL FORMULATIONS AND USES THEREOF” (SUN PHARMA GLOBAL FZE, priority 2015, published 2018).

In series [1] the test system is T-cell adhesion to ICAM-1 expressing cells. The conditions noted are these: in vitro.
The next series has as its system IFNγ, TNFα, IL-2. The conditions noted are these: in vitro.

In the case of `CCNC(=O)CCC/C=C\C[C@@H]1[C@@H](/C=C/[C@@H](O)CCc2ccccc2)[C@H](O)C[C@@H]1O` [Bimatoprost, (Z)-7-[(1R,2R,3R,5 S)-3,5-Dihydroxy-2 [(1E,3S)-3-hydroxy-5-phenyl-1-pentenyl]cyclopentyl]-5-N-ethylheptenamide], the “Solubility in ethyl alcohol and methyl alcohol” value (ethyl alcohol, methyl alcohol) is “very soluble”. Further, the Solubility in water entry (water) was “only slightly soluble”.

As to `CS(=O)(=O)c1cccc(C[C@H](NC(=O)c2c(Cl)cc3c(c2Cl)CCN(C(=O)c2ccc4ccoc4c2)C3)C(=O)O)c1` [lifitegrast], the “T-cell adhesion to ICAM-1 expressing cells” value in series [1] is recorded as “inhibits”. Moreover, the “Secretion of key inflammatory cytokines (IFNγ, TNFα, IL-2)” value in the series with IFNγ, TNFα, IL-2 is given as “inhibits”.
